Experimental findings from PubChem BioAssay AID1996 are described below.

In brackets after ≈: the same amount, converted by molar mass. Bounds are passed on as bounds.

The conditions of this series: buffer; pH 7.4; 200.0 µM.
With `CCS(=O)(=O)Nc1ccccc1C(N)=O`, the solubility (kinetic) is over 34.2 µg/mL.
In the case of `COc1cccc(Oc2cc(Cl)nc(N)n2)c1`, the solubility (kinetic) is 15 µg/mL (≈ 59.6 µM).
The same measure for `O=C(O)C1C2CCC(C2)C1C(=O)Nc1cccc([N+](=O)[O-])c1` (centres undefined): 13.9 µg/mL (≈ 45.7 µM); for `S=C(Nc1cccnc1)N1CCN(c2ccccc2Cl)CC1`: 44.2 µg/mL (≈ 133 µM); for `CSc1ccc(/C=C/C(=O)OCC(=O)N(C)CCC#N)cc1`: 29.9 µg/mL (≈ 93.9 µM).
Turning to `CC(=O)c1cccc(NC(=O)CNC(=O)Cc2cccc3ccccc23)c1`, the kinetic solubility came to 8.4 µg/mL (≈ 23.3 µM).
The same measure for `COc1ccc(NC(=O)CN2CCN(C(C)=O)CC2)cc1S(=O)(=O)N1CCOCC1`: over 66.1 µg/mL.
The compound `CCOC(Cn1ccc(=O)[nH]c1=O)OCC` displayed a kinetic solubility of over 34.2 µg/mL.
As for `Cc1cc(SCc2cccc(C(F)(F)F)c2)nc(=O)[nH]1`, the figure is 26.9 µg/mL (≈ 89.6 µM); as for `CCN(CC)S(=O)(=O)c1ccc(Oc2ccccc2OC)cc1`, 10 µg/mL (≈ 29.8 µM); as for `CCC(C)[C@H](NC(=O)NCc1ccc(Cl)cc1)C(=O)O` (some centres undefined), over 44.8 µg/mL.
On to `CC1CC(C)CN(CC(O)COCc2ccccc2F)C1.Cl` (centres undefined), for which the solubility (kinetic) was over 49.8 µg/mL.
Compound `CCOc1cc(C(=O)N2CCCN(C)CC2)cc(OCC)c1OCC` came in with a solubility (kinetic) of over 52.6 µg/mL.
The compound `CC(=O)c1ccc(N=C2SCCCN2C(=O)C2CCCCC2)cc1` gave a kinetic solubility of 42.2 µg/mL (≈ 123 µM).
Regarding `CC(C)(C)S(=O)(=O)c1cnc(N2CCOCC2)nc1N`, the solubility (kinetic) amounted to 32.8 µg/mL (≈ 109 µM).
The compound `CCNC(=O)C(=O)Nc1ccc(OC)c(Cl)c1` showed a solubility (kinetic) of 2.4 µg/mL (≈ 9.35 µM).
`O=C(/C=C/c1ccccc1)N(Cc1cccc(Cl)c1)C1CCS(=O)(=O)C1` (centres undefined) had a solubility (kinetic) of 14.1 µg/mL (≈ 36.2 µM).
For the compound `O=C(OCC(=O)N1CCCC1=O)c1cccc([N+](=O)[O-])c1`, the solubility (kinetic) is over 43.8 µg/mL.
`CCC1(c2ccccc2)C(=O)NCNC1=O` displayed a solubility (kinetic) of over 32.7 µg/mL.
The compound `O=C(NC1CCCCC1)c1ccc(-c2ccccc2F)o1` returned a solubility (kinetic) of 5 µg/mL (≈ 17.4 µM).
The same measure for `Cn1ccnc1Sc1ccc(C=O)cc1[N+](=O)[O-]`: over 39.5 µg/mL.
Take `O=C(COC(=O)CCC(=O)c1ccc(F)cc1)NCc1ccc(Cl)cc1`: the kinetic solubility worked out at 10.6 µg/mL (≈ 28.1 µM).
Compound `CC(Sc1nnc2ccccn12)C(=O)Nc1ccc(N2CCOCC2)cc1` (centres undefined) had a solubility (kinetic) of over 57.5 µg/mL.
The same measure for `COc1ccc(NC(=O)CC(C(=O)O)C(C)c2ccccc2)cc1` (centres undefined): over 49.1 µg/mL; for `Cc1ccsc1CNC1C2CC3CC(C2)CC1C3.Cl` (centres undefined): 39.9 µg/mL.
Take `Cc1onc(-c2ccccc2Cl)c1C(=O)NCc1ccccc1F`: the solubility (kinetic) is over 51.7 µg/mL.
The same measure for `CC(C)CNC(=O)COC(=O)C1c2ccccc2Oc2ccccc21`: 41.4 µg/mL (≈ 122 µM); for `CCC1(C)Cc2ccccc2-c2nc(NCCCO)[nH]c(=O)c21` (centres undefined): 44 µg/mL (≈ 140 µM).
As for `CC(C)CCN1CCN(C/C=C/c2ccco2)CC1CCO` (centres undefined), the figure is 45.3 µg/mL (≈ 148 µM); as for `COc1cc(C(=O)Nc2cc(OC)c(OC)c(OC)c2)ccc1OCc1c(C)noc1C`, 2.9 µg/mL (≈ 6.55 µM).
As to `CC(Oc1cccnc1[N+](=O)[O-])C(=O)N1CCc2ccccc21` (centres undefined), the kinetic solubility was over 47 µg/mL.
As to `NC(=O)c1ccccc1NC(=O)c1ccc2c(c1)OCO2`, the kinetic solubility is 3.1 µg/mL (≈ 10.9 µM).
With `CC(=O)c1cccc(NC(=O)CSc2nc(C3CC3)nc3ccccc23)c1`, the solubility (kinetic) stood at 0.9 µg/mL (≈ 2.38 µM).
`CC(C)(C)NS(=O)(=O)c1ccc(/C=C/C(=O)O)cc1` had a kinetic solubility of over 42.5 µg/mL.
`Cc1cc(Cl)nc(NC(=O)Nc2cccc(Cl)c2)n1` returned a solubility (kinetic) of under 0.2 µg/mL.
For `O=C(COc1ccccc1)Nc1ccncc1Cl`, the kinetic solubility was found to be 32.3 µg/mL (≈ 123 µM).
On to `COc1ccc(C(=O)Nc2ccc(C(=O)c3ccccc3)cc2)cc1`, for which the kinetic solubility was under 0.7 µg/mL.
`COC(=O)c1cccc(Nc2nc(-c3ccncc3)nc3ccccc23)c1` displayed a kinetic solubility of under 0.2 µg/mL.
In turn, `CN(C)c1nc2ncn(Cc3ccccc3)c2c(=O)[nH]1` had a solubility (kinetic) of over 40.4 µg/mL.
In turn, `O=C(O)C1CCCN1C(=O)OCC1c2ccccc2-c2ccccc21` (centres undefined) displayed a kinetic solubility of over 50.6 µg/mL.
As for `COc1ccccc1/C=C/C1NC(=O)NC(C)=C1C(=O)OC(C)C` (centres undefined), the solubility (kinetic) was determined as 0.4 µg/mL (≈ 1.21 µM).
In turn, `CCc1cccc(CC)c1NC(=O)C1CCN(C(=O)c2ccco2)CC1` showed a solubility (kinetic) of 51.2 µg/mL (≈ 144 µM).
As for `CCOc1ccc(NC(=O)C2C(c3ccccc3)C2(Cl)Cl)cc1` (centres undefined), the figure is under 0.8 µg/mL.
In turn, `O=C(O)CCCN1C(=O)/C(=C/c2ccncc2)SC1=S` registered a solubility (kinetic) of over 46.3 µg/mL.
As for `CC1(C)NC(=O)N(CCC(=O)Nc2cc(C(F)(F)F)ccc2Cl)C1=O`, the figure is over 56.7 µg/mL; as for `N/C(=N\OC(=O)c1ccccc1)c1ccncc1`, 34.8 µg/mL (≈ 144 µM); as for `Cc1ccn2c(C(=O)NN=C3CCCCCCC3)c(C)nc2c1`, over 46.9 µg/mL.
`O=C1CN(C(=O)COc2c(F)c(F)cc(F)c2F)c2ccccc2N1` gave a kinetic solubility of 44.4 µg/mL (≈ 125 µM).
The same measure for `CCCCS(=O)(=O)N1CCCC(C(=O)NCCc2ccccc2)C1` (centres undefined): 14.7 µg/mL (≈ 41.7 µM).
In turn, `O=C(NC1CC1)C1CC(=O)N(c2cccc(Cl)c2Cl)C1` (centres undefined) had a kinetic solubility of over 47 µg/mL.
As for `O=C(COC(=O)COc1ccccc1F)NCc1ccco1`, the figure is over 46.1 µg/mL.
For the compound `CC1CC(C)CN(C(=O)COC(=O)c2cncc(Br)c2)C1` (centres undefined), the kinetic solubility was determined as 42.4 µg/mL (≈ 119 µM).
Consider `O=C(COC(=O)c1ccc(Cl)c([N+](=O)[O-])c1)NC1CCCC1`, for which the solubility (kinetic) stood at 7.6 µg/mL (≈ 23.3 µM).
Compound `CC1CC(C)CN(C(=O)COC(=O)COc2ccccc2C#N)C1` (centres undefined) showed a solubility (kinetic) of over 49.6 µg/mL.
`Cc1[nH]c(C(=O)O)c(C#N)c1C(=O)c1ccccc1` registered a kinetic solubility of over 38.1 µg/mL.
As for `CNn1cnc2ccsc2c1=O`, the figure is over 27.2 µg/mL; as for `COc1ccc(CCC(C)NC2CCCCCCC2)cc1` (centres undefined), 41.8 µg/mL (≈ 144 µM).
`O=C(c1ccc(S(=O)(=O)Nc2ccccc2)cc1)N1CCC1` had a solubility (kinetic) of over 47.5 µg/mL.
`CCn1c(SCc2ccccc2)nc2cc(S(N)(=O)=O)ccc21` gave a kinetic solubility of 2.2 µg/mL (≈ 6.33 µM).
For `O=C(NC1CCSc2ccccc21)c1ccccc1Cl` (centres undefined), the solubility (kinetic) is 9.3 µg/mL (≈ 30.6 µM).
As for `Cc1cc(NC(=O)CSc2nc3c(cc2C#N)CCCCC3)no1`, the kinetic solubility was under 0.2 µg/mL.
Regarding `CC(=O)N(C)c1ccc(N=Cc2c(O)ccc3ccccc23)cc1`, the kinetic solubility is over 47.8 µg/mL.
In the case of `Cc1ccc(NC2(C#N)C(=O)Nc3ccccc32)cc1C` (centres undefined), the solubility (kinetic) is 23.3 µg/mL (≈ 84 µM).
Turning to `O=[N+]([O-])c1cccc(/C=C/c2ccc3cccc(O)c3n2)c1`, the solubility (kinetic) was under 0.3 µg/mL.
As for `Cc1ncc(S(=O)(=O)C(C)(C)C)c(N)n1`, the figure is 27.2 µg/mL (≈ 119 µM); as for `Cc1ccc(SCCc2cc[n+](CC(=O)c3ccccc3)cc2)cc1`, 50.8 µg/mL; as for `OC(CCNCCc1c[nH]c2ccccc12)C(F)(F)F` (centres undefined), 35.8 µg/mL (≈ 125 µM).
For `Cc1ccc(CNC(=O)C2CC=CCC2C(=O)O)cc1` (centres undefined), the kinetic solubility is over 41 µg/mL.
The compound `CS(=O)(=O)c1ccc(C(=O)NCC2(N3CCOCC3)CCCCC2)cc1` came in with a kinetic solubility of over 57.1 µg/mL.
With `COc1ccc(-c2csc(NC(=O)CN3C(=O)CCC3=O)n2)cc1`, the solubility (kinetic) came out at 11.7 µg/mL (≈ 33.9 µM).
`CCOC(=O)C1(C(F)(F)F)N=C(c2ccccc2F)OC(N(C)C)=N1` (centres undefined) yielded a kinetic solubility of 42.2 µg/mL (≈ 117 µM).
The same measure for `CC(O/N=C(\N)c1ccccc1)C(=O)Nc1cccc(C(F)(F)F)c1` (centres undefined): over 52.7 µg/mL; for `CC(OC(=O)c1ccc(Br)o1)C(=O)NCC1CCCCC1` (centres undefined): 10.7 µg/mL (≈ 29.9 µM).
Compound `CCCCCCC(=O)OCC(=O)c1ccc2c(c1)NC(=O)CO2` had a solubility (kinetic) of 10.8 µg/mL (≈ 33.8 µM).
In turn, `CCCCOc1ccc(Cc2cnc(N)nc2N)cc1` registered a kinetic solubility of 36.3 µg/mL (≈ 133 µM).
In turn, `CCC(=O)N(Cc1cc2ccccc2[nH]c1=O)c1ccc(OC)cc1` came in with a kinetic solubility of over 50.5 µg/mL.
Compound `O=C(CSc1ncccn1)Nc1ccc2c(c1)OCO2` returned a solubility (kinetic) of over 43.4 µg/mL.
In the case of `COC(=O)c1c(C)[nH]c(C(=O)C(C)OC(=O)C2CC2C)c1C` (centres undefined), the kinetic solubility was over 46.1 µg/mL.
For the compound `O=[N+]([O-])C1=CC=C2C(=NC3(CCCCC3)N2O)C1=NCCO`, the kinetic solubility was over 45.9 µg/mL.
Turning to `COc1ccc(C)cc1Nc1c2c(nc3ccccc13)CCC2`, the solubility (kinetic) was over 45.7 µg/mL.
`O=C(Nc1ccc(Cl)c([N+](=O)[O-])c1)ONC1=NCCCCC1` displayed a solubility (kinetic) of 42.4 µg/mL (≈ 130 µM).
Compound `CN=C(Nc1cccnc1)c1ccccc1` displayed a kinetic solubility of over 31.7 µg/mL.
`Cc1cc(C(=O)Nc2ccccc2Cc2ccccc2)no1` registered a solubility (kinetic) of 2.8 µg/mL (≈ 9.58 µM).
In turn, `CC(=O)c1cccc(CN2CCN(C3CCCC3)C(CCO)C2)c1` (centres undefined) showed a solubility (kinetic) of over 49.6 µg/mL.
In turn, `O=C(Nc1ccccc1)c1ccc2c(c1)OCCCO2` returned a solubility (kinetic) of over 40.4 µg/mL.
On to `CC#CC[N+](C)(CC#CC)CC(=O)c1ccccc1.[Br-]`, for which the kinetic solubility was determined as 30 µg/mL.
The compound `c1ccc(CN2CCN(c3ncccn3)CC2)cc1` returned a kinetic solubility of 24.5 µg/mL (≈ 96.3 µM).
The compound `COc1ccccc1C(C#N)c1cccc(Cl)n1` (centres undefined) came in with a solubility (kinetic) of 38 µg/mL (≈ 147 µM).
For `Cc1ccc(C(C)NC(=O)Cc2cccs2)cc1C` (centres undefined), the solubility (kinetic) is over 41 µg/mL.
`CCN(c1ccccc1)c1cc2ccccc2c(=O)[nH]1` had a solubility (kinetic) of 23.9 µg/mL (≈ 90.4 µM).
As for `Cn1cnc2c1c(=O)[nH]c(=O)n2Cc1ccccc1`, the figure is over 38.4 µg/mL; as for `CC(=O)N(CCCN(C)C)Cc1ccccn1`, 30 µg/mL (≈ 127 µM); as for `O=C(NCc1ccccc1)NC(=O)c1ccccc1F`, 21.1 µg/mL (≈ 77.5 µM).
In the case of `CSc1c(CN2CCN(C)CC2)c2ccccc2n1C.Cl`, the solubility (kinetic) was 52.9 µg/mL.
In turn, `CCOc1ccccc1N=Cc1c(O)n(C)c(=O)n(C)c1=O` yielded a solubility (kinetic) of 1.1 µg/mL (≈ 3.63 µM).
The same measure for `CCCCc1ccc(NC2=NCCCS2)cc1`: 26.4 µg/mL (≈ 106 µM); for `CCSc1nc2sc3c(c2c(=O)n1-c1ccccc1)CCN(C(C)C)C3`: 37 µg/mL (≈ 96 µM).
As for `NC(=O)CSc1ccc(F)cc1`, the figure is over 27.8 µg/mL.
Take `O=c1c2ccccc2nc(Cc2ccccc2)n1-c1ccccc1`: the solubility (kinetic) was determined as 39.5 µg/mL (≈ 126 µM).
With `O=C(COC(=O)c1c(F)cccc1Cl)NC1CCCC1`, the solubility (kinetic) was over 45 µg/mL.
The same measure for `COC(=O)c1ccc(NC(=S)NC(=O)c2cccnc2)cc1`: 3.7 µg/mL (≈ 11.7 µM); for `O=C(Cc1ccccc1F)Nc1ccccc1N1CCCC1`: 27.8 µg/mL (≈ 93.2 µM); for `O=C(Nc1ccccc1)c1c(O)c2c(n(Cc3ccco3)c1=O)CCCC2`: under 0.4 µg/mL.
The same measure for `O=C(NCCCN1CCOCC1)C1CC(=O)N(c2ccccc2)C1` (centres undefined): over 49.7 µg/mL.
